{"source": "patent US20160136229A1", "about": "“MATERIALS FOR POSITIVE CATHEPSIN B MODULATION AND METHODS OF USE FOR TREATING MILD COGNITIVE IMPAIRMENT (MCI), EARLY DEMENTIA, A-SYNUCLEINOPATHY, TRAUMATIC BRAIN INJURY, CARDIOMYOPATHY, EYE DISEASE AND SKIN DAMAGE” (University of North Carolina at Pembroke, priority 2013, published 2016)", "key": {"[1]": {"tested_on": "GluR1, GluR4, synaptophysin, and synapsin II", "experiment": "Synaptic marker immunoblot in hippocampal homogenates of A53T mice", "format": "in vivo, mouse", "settings": "A53T mice injected daily for 11 days", "experimental": "FIG. 7. The cathepsin B modulator PADK promotes synaptic integrity in the model of early α-synucleinopathy. The A53T transgenic and wildtype (wt) mice were injected daily with PADK or vehicle for 11 days. […] Mean GluR1 immunoreactivities±SEM are shown (B); post hoc test compared to vehicle-treated transgenics: *p<0.05.\nLysosomal enhancement also promoted protein clearance and synaptic protection in the Parkinson's disease transgenic mouse model expressing mutant A53T human α-synuclein (FIG. 4E). As in the other proteinopathy models, the reduction in human α-synuclein corresponded with active CatB levels that were increased 3-6 fold in brains of the PADK-treated A53T mice. […] The A53T mice were used at 7-8 months of age and behavioral studies confirmed the early α-synucleinopathy was pre-symptomatic, although a subtle change in anxiety behavior was detected (FIG. 5). PADK-mediated cathepsin B modulation was evident throughout the CNS, and the enhanced levels of the enzyme's active form corresponded with improved clearance of α-synuclein (FIG. 6) and recovery of several synaptic markers (FIG. 7A)."}, "GluR1": {"tested_on": "GluR1", "experiment": "Immunoblot of postsynaptic marker GluR1 in hippocampal homogenates of Fischer rats", "format": "in vivo, rat", "settings": "27 mg/kg daily for 9 days; vs vehicle, p=0.0386", "experimental": "FIG. 3. Lysosomal modulator PADK dramatically up-regulates active cathepsin B levels in middle-aged Fischer rats, a model of MCI. The female rats were injected daily with vehicle (veh) or 27 mg/kg PADK for 9 days. Brain regions were dissected, homogenates prepared, and equal protein aliquots were assessed by immunoblot to label the 30-kDa active form of cathepsin B as well as actin load controls (A). The hippocampal homogenate samples were also stained for the postsynaptic marker GluR1 to assess for synaptic recovery in correspondence to cathepsin B regulation (A, lower blots).\nBrains were removed from the Fischer rats after the behavior studies in order to assess cathepsin B and synaptic marker levels. […] Cathepsin B immunoreactivity was increased 4- to 8-fold in hippocampal as well as neocortical homogenates, while non-lysosomal proteins remained unchanged (gel load controls). In addition to the correspondence with improved memory, there is evidence that the lysosomal modulation corresponds with synaptic recovery, assessing the postsynaptic marker GluR1 in hippocampus (FIG. 3A lower blots, and FIG. 3C). Without wishing to be bound by any scientific theory, the results support the hypothesis that lysosomal enhancement offsets the age-related cascade of microtubule destabilization, transport failure, synaptic decline, and cognitive impairment. […]"}, "active cathepsin B": {"target": "T1, active cathepsin B (Homo sapiens, UniProt P07858)", "T1 construct": "endogenous in cells", "experiment": "Active cathepsin B staining in human neuronal cultures", "format": "cell-based", "settings": "10 μM for 3 days, vs control compound Z-FA"}, "cathepsin B": {"target": "cathepsin B (Mus musculus, UniProt P10605)", "sequence (P10605 80-333)": "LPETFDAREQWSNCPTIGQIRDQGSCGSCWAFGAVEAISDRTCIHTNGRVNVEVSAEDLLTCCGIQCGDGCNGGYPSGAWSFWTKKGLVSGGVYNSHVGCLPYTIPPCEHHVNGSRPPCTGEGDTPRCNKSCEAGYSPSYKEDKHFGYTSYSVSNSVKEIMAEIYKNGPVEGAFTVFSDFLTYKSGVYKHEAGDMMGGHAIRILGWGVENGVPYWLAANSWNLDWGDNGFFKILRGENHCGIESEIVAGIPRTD", "experiment": "Cathepsin B / LAMP1 immunostaining of hippocampal tissue from PADK-treated mice", "format": "in vivo", "set-up": "from tissue; host or cells: mouse hippocampus (A1)", "settings": "i.p., 20 mg/kg/day×9 days", "excerpt": "FIG. 1. Lysosomal modulation increases the cathepsin B content of lysosomes and reduces intracellular Δβ1-42 in the APPswe/PS1ΔE9 transgenic mouse model of Alzheimer's disease. […] Without wishing to be bound by any scientific theory, the latter steps may involve processing/trafficking of active intermediate (intCB) and mature forms (matCB) from early/late endosomes to lysosomes in order to promote protein degradation (A). […] The increase in organellar cathepsin B enzyme (red) in PADK-treated APPswe/PS1ΔE9 transgenic mice (tg) was associated with a decrease in intracellular Δβ1-42 in the CA1 pyramidal neurons (C). Arrows denote co-localization in lysosomes, capturing intact Δβ1-42 before being degraded by cathepsin B. View-field widths: 12 μm. wt, vehicle-treated wild-type mice.\nThe lysosomal modulator Z-Phe-Ala-diazomethylketone (PADK) is administered to APPswe/PS1ΔE9 transgenic mice. Low-level PADK enhances cathepsin trafficking and maturation, thereby improving the clearance capacity of lysosomes (FIG. 1). It attenuates both PHF-tau and synaptic decline in the hippocampal slice model of protein accumulation (Bendiske and Bahr, 2003; Butler et al., 2005; Bahr, 2009). […] In PADK-treated transgenic mice, the increase in organellar cathepsin B was associated with a decrease in intracellular Aβ1-42 in pyramidal neurons (FIG. 1C)."}, "C57BL/6 mice": {"tested_on": "C57BL/6 mice", "experiment": "Safety evaluation in PADK-injected C57BL/6 mice (synaptic markers, blood markers, behavior, organ histology)", "format": "in vivo, mouse", "experimental": "FIG. 11. Safety evaluation of PADK found no evidence of toxicity. […] Alanine aminotransferase (ALT) and blood urea nitrogen (BUN) measures in plasma were also unchanged (E), indicating no effect on major organs. […] Organ sections were H+E stained and tissue integrity was evaluated by a pathologist that was blinded to the treatment groups (G).\nAdditional safety evaluation tests with PADK were conducted. […] Blood markers were also unchanged, indicating no effect on major organs (FIG. 11E)."}, "mutant colonies": {"tested_on": "mutant colonies", "experiment": "Ames test of genetic toxicity", "format": "cell-based", "settings": "in contrast to a mutagen tested in parallel"}, "[2]": {"settings": "C57BL/6 mice, ip daily for 9 days"}}, "data": [{"smiles": "C[C@H](NC(=O)[C@H](Cc1ccccc1)NC(=O)OCc1ccccc1)C(=O)C=[N+]=[N-]", "note": "[PADK, N-carbobenzyloxy-L-phenylalanyl-L-alanyl-diazomethylketone]", "values": [{"measurement": "levels of synaptic markers GluR1, GluR4, synaptophysin, and synapsin II", "setting": "[1]", "result": "improved levels"}, {"measurement": "GluR1 levels in hippocampus", "setting": "GluR1", "result": "increased"}, {"measurement": "levels of active cathepsin B", "setting": "active cathepsin B", "result": "increased levels of active cathepsin B"}, {"measurement": "levels of cathepsin B in hippocampal neurons, co-localized with LAMP1-positive lysosomes", "setting": "cathepsin B", "result": "enhanced levels of cathepsin B"}, {"measurement": "Alanine aminotransferase (ALT) in plasma", "setting": "C57BL/6 mice; [2]", "result": "unchanged"}, {"measurement": "blood urea nitrogen (BUN) in plasma", "setting": "C57BL/6 mice; [2]", "result": "unchanged"}, {"measurement": "synaptic markers", "setting": "C57BL/6 mice; [2]", "result": "unchanged"}, {"measurement": "motor coordination rotarod test", "setting": "C57BL/6 mice; prior behavioral tests", "result": "no adverse effects"}, {"measurement": "spatial memory using conditioned place preference", "setting": "C57BL/6 mice; prior behavioral tests", "result": "no adverse effects"}, {"measurement": "organ tissue integrity (H+E stained sections, blinded pathologist)", "setting": "C57BL/6 mice; various organs", "result": "scored as normal"}, {"measurement": "mutant colonies in the Ames test", "setting": "mutant colonies", "result": "did not produce mutant colonies"}]}]}
